Measurements as given in PubChem BioAssay AID248 (DTP/NCI, 2004).
Values joined by “and” are separate entries in the source; they are usually repeats but may differ in a detail not shown here. Equal entries are not always repeated. Inconclusive results and toxic doses are left out.

Test system: L1210 leukemia ip in BDF1 mice, survival T/C
Experiment: NCI In Vivo Anticancer Drug Screen. Data for tumor model L1210 Leukemia (intraperitoneal) in B6D2F1 (BDF1) mice
Conditions: endpoint: mean survival time, higher = longer survival
Method in brief: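 Antitumor effect is assessed in tumor-bearing animals. Survival in the compound arm is compared with a vehicle-dosed control arm and expressed as their quotient.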

[1] = dose: 6.25 mg/kg/injection, schedule: Q01DX009 (ip), vehicle: saline
[2] = dose: 100.0 mg/kg/injection, schedule: Q04DX003 (ip), vehicle: Klucel (hydroxypropylcellulose) (HPC)

CC1(C)N=C(N)N=C(N)N1c1ccc(CCCCc2ccc(S(=O)(=O)F)cc2Cl)c(Cl)c1
T/C (dose: 3.12 mg/kg/injection, schedule: Q01DX009 (ip), vehicle: Klucel (hydroxypropylcellulose) (HPC)): 102 % of control | T/C (dose: 3.12 mg/kg/injection, schedule: Q04DX003 (ip), vehicle: Klucel (hydroxypropylcellulose) (HPC)): 97 % of control | T/C (dose: 6.25 mg/kg/injection, schedule: Q01DX009 (ip), vehicle: Klucel (hydroxypropylcellulose) (HPC)): 100 % of control | T/C [1]: 116 % of control | T/C (dose: 6.25 mg/kg/injection, schedule: Q04DX003 (ip), vehicle: Klucel (hydroxypropylcellulose) (HPC)): 105 % of control | T/C (dose: 7.26 mg/kg/injection, schedule: Q01DX009 (ip), vehicle: saline): 111 % of control | T/C (dose: 7.26 mg/kg/injection, schedule: Q04DX003 (ip), vehicle: saline): 115 % of control | T/C (dose: 10.89 mg/kg/injection, schedule: Q01DX009 (ip), vehicle: saline): 117 % of control | T/C (dose: 12.5 mg/kg/injection, schedule: Q01DX009 (ip), vehicle: Klucel (hydroxypropylcellulose) (HPC)): 105 % of control | T/C (dose: 12.5 mg/kg/injection, schedule: Q04DX003 (ip), vehicle: Klucel (hydroxypropylcellulose) (HPC)): 105 % of control | T/C (dose: 24.0 mg/kg/injection, schedule: Q01DX009 (ip), vehicle: saline with Tween-80): 122 % of control | T/C (dose: 25.0 mg/kg/injection, schedule: Q01DX009 (ip), vehicle: Klucel (hydroxypropylcellulose) (HPC)): 107 % of control and 122 % of control | T/C (dose: 25.0 mg/kg/injection, schedule: Q04DX003 (ip), vehicle: Klucel (hydroxypropylcellulose) (HPC)): 115 % of control | T/C (dose: 50.0 mg/kg/injection, schedule: Q04DX003 (ip), vehicle: Klucel (hydroxypropylcellulose) (HPC)): 112 % of control | T/C (dose: 75.0 mg/kg/injection, schedule: Q01DX009 (ip), vehicle: saline with Tween-80): 98 % of control | T/C (dose: 75.0 mg/kg/injection, schedule: Q01DX009 (ip), vehicle: saline): 116 % of control | T/C (dose: 100.0 mg/kg/injection, schedule: Q01DX009 (ip), vehicle: saline): 88 % of control | T/C [2]: 118 % of control | T/C (dose: 150.0 mg/kg/injection, schedule: Q01DX009 (ip), vehicle: saline): 96 % of control | T/C (dose: 150.0 mg/kg/injection, schedule: Q04DX003 (ip), vehicle: saline with Tween-80): 117 % of control | T/C (dose: 200.0 mg/kg/injection, schedule: Q01DX009 (ip), vehicle: Klucel (hydroxypropylcellulose) (HPC)): 109 % of control | T/C (dose: 200.0 mg/kg/injection, schedule: Q04DX003 (ip), vehicle: saline): 120 % of control | T/C (dose: 300.0 mg/kg/injection, schedule: Q01DX009 (ip), vehicle: saline): 98 % of control | T/C (dose: 300.0 mg/kg/injection, schedule: Q04DX003 (ip), vehicle: Klucel (hydroxypropylcellulose) (HPC)): 152 % of control | T/C (dose: 300.0 mg/kg/injection, schedule: Q04DX003 (ip), vehicle: saline): 152 % of control | T/C (dose: 400.0 mg/kg/injection, schedule: Q04DX003 (ip), vehicle: Klucel (hydroxypropylcellulose) (HPC)): 113 % of control | T/C (dose: 450.0 mg/kg/injection, schedule: Q04DX003 (ip), vehicle: saline): 111 % of control

CC(N)Cc1ccc2c(c1)OCO2 (stereo not drawn)
T/C (dose: 6.0 mg/kg/injection, schedule: Q01DX009 (ip), vehicle: saline): 104 % of control | T/C [1]: 103 % of control | T/C (dose: 12.0 mg/kg/injection, schedule: Q01DX009 (ip), vehicle: saline): 98 % of control | T/C (dose: 12.5 mg/kg/injection, schedule: Q01DX009 (ip), vehicle: saline): 93 % of control | T/C (dose: 25.0 mg/kg/injection, schedule: Q01DX009 (ip), vehicle: saline): 106 % of control and 98 % of control and 102 % of control | T/C (dose: 25.0 mg/kg/injection, schedule: Q04DX003 (ip), vehicle: saline): 103 % of control and 96 % of control | T/C (dose: 50.0 mg/kg/injection, schedule: Q01DX009 (ip), vehicle: saline): 108 % of control | T/C (dose: 50.0 mg/kg/injection, schedule: Q04DX003 (ip), vehicle: saline): 103 % of control and 97 % of control | T/C [2]: 93 % of control | T/C (dose: 100.0 mg/kg/injection, schedule: Q04DX003 (ip), vehicle: saline): 110 % of control

CCCCCCCCCC(=O)N1CCCCC1CC (stereo not drawn)
T/C (dose: 100.0 mg/kg/injection, schedule: Q01DX001 (ip), vehicle: carboxymethylcellulose (CMC)): 103 % of control | T/C (dose: 100.0 mg/kg/injection, schedule: Q01DX009 (ip), vehicle: carboxymethylcellulose (CMC)): 94 % of control and 95 % of control | T/C (dose: 100.0 mg/kg/injection, schedule: Q04DX002 (ip), vehicle: carboxymethylcellulose (CMC)): 100 % of control and 92 % of control | T/C (dose: 100.0 mg/kg/injection, schedule: Q04DX003 (ip), vehicle: carboxymethylcellulose (CMC)): 92 % of control | T/C (dose: 200.0 mg/kg/injection, schedule: Q01DX001 (ip), vehicle: carboxymethylcellulose (CMC)): 101 % of control | T/C (dose: 200.0 mg/kg/injection, schedule: Q01DX009 (ip), vehicle: carboxymethylcellulose (CMC)): 95 % of control and 102 % of control | T/C (dose: 200.0 mg/kg/injection, schedule: Q04DX002 (ip), vehicle: carboxymethylcellulose (CMC)): 103 % of control and 92 % of control | T/C (dose: 200.0 mg/kg/injection, schedule: Q04DX003 (ip), vehicle: carboxymethylcellulose (CMC)): 95 % of control | T/C (dose: 400.0 mg/kg/injection, schedule: Q01DX001 (ip), vehicle: carboxymethylcellulose (CMC)): 95 % of control | T/C (dose: 400.0 mg/kg/injection, schedule: Q04DX002 (ip), vehicle: carboxymethylcellulose (CMC)): 95 % of control and 96 % of control | T/C (dose: 400.0 mg/kg/injection, schedule: Q04DX003 (ip), vehicle: carboxymethylcellulose (CMC)): 97 % of control
